Tests used:
Format in all cases: functional
CCRF-CEM = assay: Antiproliferative activity against human CCRF-CEM cells assessed as cell viability at 10^-5 M incubated for 48 hrs by sulforhodamine B assay relative to control; conditions: read-out: Activity
MOLT-4 = assay: Antiproliferative activity against human MOLT4 cells assessed as cell viability at 10^-5 M incubated for 48 hrs by sulforhodamine B assay relative to control; conditions: MOLT-4, 48 h, read-out: Activity
SR = assay: Antiproliferative activity against human SR cells assessed as cell viability at 10^-5 M incubated for 48 hrs by sulforhodamine B assay relative to control; conditions: read-out: Activity
EKVX = assay: Antiproliferative activity against human EKVX cells assessed as cell viability at 10^-5 M incubated for 48 hrs by sulforhodamine B assay relative to control; conditions: read-out: Activity
NCI-H226 = assay: Antiproliferative activity against human NCI-H226 cells assessed as cell viability at 10^-5 M incubated for 48 hrs by sulforhodamine B assay relative to control; conditions: NCI-H226, 48 h, read-out: Activity
NCI-H322M = assay: Antiproliferative activity against human NCI-H322M cells assessed as cell viability at 10^-5 M incubated for 48 hrs by sulforhodamine B assay relative to control; conditions: read-out: Activity
NCI-H460 = assay: Antiproliferative activity against human NCI-H460 cells assessed as cell viability at 10^-5 M incubated for 48 hrs by sulforhodamine B assay relative to control; conditions: NCI-H460, 48 h, read-out: Activity
HCC 2998 = assay: Antiproliferative activity against human HCC2998 cells assessed as cell viability at 10^-5 M incubated for 48 hrs by sulforhodamine B assay relative to control; conditions: HCC 2998, 48 h, read-out: Activity
SW-620 = assay: Antiproliferative activity against human SW620 cells assessed as cell viability at 10^-5 M incubated for 48 hrs by sulforhodamine B assay relative to control; conditions: SW-620, 48 h, read-out: Activity
SF-268 = assay: Antiproliferative activity against human SF268 cells assessed as cell viability at 10^-5 M incubated for 48 hrs by sulforhodamine B assay relative to control; conditions: SF-268, 48 h, read-out: Activity
SF-295 = assay: Antiproliferative activity against human SF295 cells assessed as cell viability at 10^-5 M incubated for 48 hrs by sulforhodamine B assay relative to control; conditions: SF-295, 48 h, read-out: Activity
SF-539 = assay: Antiproliferative activity against human SF539 cells assessed as cell viability at 10^-5 M incubated for 48 hrs by sulforhodamine B assay relative to control; conditions: SF-539, 48 h, read-out: Activity
SNB-19 = assay: Antiproliferative activity against human SNB19 cells assessed as cell viability at 10^-5 M incubated for 48 hrs by sulforhodamine B assay relative to control; conditions: SNB-19, 48 h, read-out: Activity
U-251 = assay: Antiproliferative activity against human U251 cells assessed as cell viability at 10^-5 M incubated for 48 hrs by sulforhodamine B assay relative to control; conditions: U-251, 48 h, read-out: Activity
LOX IMVI = assay: Antiproliferative activity against human LOXIMVI cells assessed as cell viability at 10^-5 M incubated for 48 hrs by sulforhodamine B assay relative to control; conditions: read-out: Activity
Malme-3M = assay: Antiproliferative activity against human MALME-3M cells assessed as cell viability at 10^-5 M incubated for 48 hrs by sulforhodamine B assay relative to control; conditions: read-out: Activity
M14 = assay: Antiproliferative activity against human M14 cells assessed as cell viability at 10^-5 M incubated for 48 hrs by sulforhodamine B assay relative to control; conditions: M14, 48 h, read-out: Activity
SK-MEL-2 = assay: Antiproliferative activity against human SK-MEL-2 cells assessed as cell viability at 10^-5 M incubated for 48 hrs by sulforhodamine B assay relative to control; conditions: SK-MEL-2, 48 h, read-out: Activity
SK-MEL-5 = assay: Antiproliferative activity against human SK-MEL-5 cells assessed as cell viability at 10^-5 M incubated for 48 hrs by sulforhodamine B assay relative to control; conditions: SK-MEL-5, 48 h, read-out: Activity
IGROV-1 = assay: Antiproliferative activity against human IGROV1 cells assessed as cell viability at 10^-5 M incubated for 48 hrs by sulforhodamine B assay relative to control; conditions: IGROV-1, 48 h, read-out: Activity
OVCAR-4 = assay: Antiproliferative activity against human OVCAR4 cells assessed as cell viability at 10^-5 M incubated for 48 hrs by sulforhodamine B assay relative to control; conditions: OVCAR-4, 48 h, read-out: Activity
OVCAR-5 = assay: Antiproliferative activity against human OVCAR5 cells assessed as cell viability at 10^-5 M incubated for 48 hrs by sulforhodamine B assay relative to control; conditions: OVCAR-5, 48 h, read-out: Activity
SK-OV-3 = assay: Antiproliferative activity against human SKOV3 cells assessed as cell viability at 10^-5 M incubated for 48 hrs by sulforhodamine B assay relative to control; conditions: SK-OV-3, 48 h, read-out: Activity
A498 = assay: Antiproliferative activity against human A498 cells assessed as cell viability at 10^-5 M incubated for 48 hrs by sulforhodamine B assay relative to control; conditions: A498, 48 h, read-out: Activity
RXF 393 = assay: Antiproliferative activity against human RXF393 cells assessed as cell viability at 10^-5 M incubated for 48 hrs by sulforhodamine B assay relative to control; conditions: RXF 393, 48 h, read-out: Activity
TK-10 = assay: Antiproliferative activity against human TK10 cells assessed as cell viability at 10^-5 M incubated for 48 hrs by sulforhodamine B assay relative to control; conditions: TK-10, 48 h, read-out: Activity
DU-145 = assay: Antiproliferative activity against human DU145 cells assessed as cell viability at 10^-5 M incubated for 48 hrs by sulforhodamine B assay relative to control; conditions: DU-145, 48 h, read-out: Activity
MCF7 = assay: Antiproliferative activity against human MCF7 cells assessed as cell viability at 10^-5 M incubated for 48 hrs by sulforhodamine B assay relative to control; conditions: MCF7, 48 h, read-out: Activity
Hs-578T = assay: Antiproliferative activity against human Hs 578T cells assessed as cell viability at 10^-5 M incubated for 48 hrs by sulforhodamine B assay relative to control; conditions: read-out: Activity
BT-549 = assay: Antiproliferative activity against human BT549 cells assessed as cell viability at 10^-5 M incubated for 48 hrs by sulforhodamine B assay relative to control; conditions: BT-549, 48 h, read-out: Activity
T47D = assay: Antiproliferative activity against human T47D cells assessed as cell viability at 10^-5 M incubated for 48 hrs by sulforhodamine B assay relative to control; conditions: read-out: Activity
MDA-MB-468 = assay: Antiproliferative activity against human MDA-MB-468 cells assessed as cell viability at 10^-5 M incubated for 48 hrs by sulforhodamine B assay relative to control; conditions: MDA-MB-468, 48 h, read-out: Activity

Row | Compound | viability at 10 µM (CCRF-CEM) [%] | viability at 10 µM (MOLT-4) [%] | viability at 10 µM (SR) [%] | viability at 10 µM (EKVX) [%] | viability at 10 µM (NCI-H226) [%] | viability at 10 µM (NCI-H322M) [%] | viability at 10 µM (NCI-H460) [%] | viability at 10 µM (HCC 2998) [%] | viability at 10 µM (SW-620) [%] | viability at 10 µM (SF-268) [%] | viability at 10 µM (SF-295) [%] | viability at 10 µM (SF-539) [%] | viability at 10 µM (SNB-19) [%] | viability at 10 µM (U-251) [%] | viability at 10 µM (LOX IMVI) [%] | viability at 10 µM (Malme-3M) [%] | viability at 10 µM (M14) [%] | viability at 10 µM (SK-MEL-2) [%] | viability at 10 µM (SK-MEL-5) [%] | viability at 10 µM (IGROV-1) [%] | other results
1 | CCCOc1cc2c(cc1OCC)C1CC(O)C(O)C(O)C1NC2=O (racemic) | 107 | 104 | 116 | 104 | 99.6 | 104 | 107 | 106 | 101 | 97.6 | 102 | 99.2 | 105 | 98.5 | 96.7 | 108 | 103 | 105 | 100 | 103 | viability at 10 µM (OVCAR-4): 107%; viability at 10 µM (OVCAR-5): 105%; viability at 10 µM (SK-OV-3): 109%; viability at 10 µM (A498): 115%; viability at 10 µM (RXF 393): 109%; viability at 10 µM (TK-10): 99%; viability at 10 µM (DU-145): 110%; viability at 10 µM (MCF7): 99%; viability at 10 µM (Hs-578T): 96.9%; viability at 10 µM (BT-549): 97.1%; viability at 10 µM (T47D): 105%; viability at 10 µM (MDA-MB-468): 112%
2 | CCOc1cc2c(cc1OCC)C1CC(O)C(O)C(O)C1NC2=O (racemic) | 102 | 96.5 | 91.2 | 102 | 97.8 | 95.2 | 111 | 106 | 99.4 | 97.9 | 94.9 | 98 | 105 | 106 | 92.8 | 102 | 99.1 | 100 | 99.6 | 107 | viability at 10 µM (OVCAR-4): 107%; viability at 10 µM (OVCAR-5): 101%; viability at 10 µM (SK-OV-3): 95.9%; viability at 10 µM (A498): 111%; viability at 10 µM (RXF 393): 105%; viability at 10 µM (TK-10): 118%; viability at 10 µM (DU-145): 106%; viability at 10 µM (MCF7): 94.4%; viability at 10 µM (Hs-578T): 99.6%; viability at 10 µM (BT-549): 101%; viability at 10 µM (T47D): 90.2%; viability at 10 µM (MDA-MB-468): 94.2%
3 | CCOc1c(OC)cc2c(c1O)C(=O)NC1C2CC(O)C(O)C1O (racemic) | 103 | 92.4 | 89.2 | 98 | 99.8 | 103 | 112 | 102 | 107 | 102 | 102 | 97.7 | 99 | 96.7 | 98.1 | 102 | 105 | 106 | 101 | 102 | viability at 10 µM (OVCAR-4): 107%; viability at 10 µM (OVCAR-5): 98.7%; viability at 10 µM (SK-OV-3): 98.1%; viability at 10 µM (A498): 99.5%; viability at 10 µM (RXF 393): 109%; viability at 10 µM (TK-10): 93.9%; viability at 10 µM (DU-145): 109%; viability at 10 µM (MCF7): 92.1%; viability at 10 µM (Hs-578T): 100%; viability at 10 µM (BT-549): 99.6%; viability at 10 µM (T47D): 92.8%; viability at 10 µM (MDA-MB-468): 94.9%
